Test results: patent US12497610B2, “Functional genomics using CRISPR-CAS systems for saturating mutagenesis of non-coding elements, compositions, methods, libraries and applications thereof” (THE BROAD INSTITUTE, INC., priority 2015, dated 2025)

System: human BCL11A erythroid enhancer
Experiment: Tiled pooled CRISPR-Cas9 screen for in situ functional mapping of the human BCL11A erythroid enhancer (HbF-high/HbF-low sort, sgRNA deep sequencing)
Format: cell-based
Conditions: for Enrichment Score: HbF enrichment, human library NGG and NGG RC sgRNAs filtered for enrichment score >0.259; for Dropout Score: human library sgRNAs that produced HbF enrichment over 0.259
Source text: Every 20-mer sequence upstream of an NGG or NAG PAM sequence on the sense or anti-sense strand was identified for both the human and mouse orthologous +55, +58, and +62 DNase hypersensitive site (DHS) as well as BCL11A/BCL11a exon 2. Relative to the human hg 19 reference genome, a reference was used with the following substitutions to approximate a common low-HbF associated haplotype: rs1427407-G, rs1896293-T, rs6706648-T, rs6738440-G, rs7606173-C. Each of the sgRNA oligos were synthesized as previously described (37,41,64) and cloned using a Gibson Assembly master mix (New England Biolabs) into lentiGuide-Puro (Addgene plasmid ID 52963) BsmBI digested, PCR purified, and dephosphorylated. Gibson Assembly products were transformed to electrocompetent E. cloni cells (Lucigen). Sufficient colonies were isolated to ensure 90X library coverage for both human and mouse libraries. Plasmid libraries were deep sequenced (described below) to confirm representation.
Tiled Pooled CRISPR-Cas9 Screen for In Situ Functional Mapping the Human BCL11A Erythroid Enhancer.
HUDEP clone 2 (HUDEP-2) was utilized as previously described by from Nakamura and colleagues (49). HUDEP-2 cells were expanded in StemSpan SFEM (Stem Cell Technologies) supplemented with 10^−6 M dexamethasone (Sigma), 100 ng/mL human stem cell factor (SCF) (R&D), 3 IU/mL erythropoietin (Amgen), 1% L-glutamine (Life Technologies), and 2% penicillin/streptomycin (Life Technologies). 1 μg/mL doxycycline (Sigma) was included in the culture to induce expression of the human papilloma virus type 16 E6/E7 genes (49). HUDEP-2 cells were differentiated in Iscove's Modified Dulbecco's Medium (IMDM) supplemented with 330 μg/mL halo-transferrin (Sigma), 10 μg/mL recombinant human insulin (Sigma), 2 IU/mL heparin (Sigma), 5% human solvent detergent pooled plasma AB (Rhode Island Blood Center), 3 IU/mL erythropoietin (Amgen), 100 ng/mL human stem cell factor (SCF) (R&D), 1 μg/mL doxycycline (Sigma), 1% L-glutamine (Life Technologies), and 2% penicillin/streptomycin (Life Technologies).
HUDEP-2 cells with stable Cas9 expression were transduced at low multiplicity with the human sgRNA library lentivirus pool while in expansion medium. […] Cell numbers were maintained throughout the experiment at levels adequate to exceed 1000× representation of the library. 10 μg/mL blasticidin (Sigma) and 1 μg/mL puromycin (Sigma) were added 24 hours after transduction to select for lentiviral library integrants in cells with Cas9. Cells were cultured in expansion media for one week followed by differentiation media for an additional week.
Intracellular staining was performed by fixing cells with 0.05% glutaraldehyde (grade II) (Sigma) for 10 minutes at room temperature. Cells were centrifuged for 5 minutes at 350 g and then resuspended in 0.1% Triton-X100 (Life Technologies) for 5 minutes at room temperature for permeabilization. Triton X-100 was diluted with phosphate buffered saline (PBS) and then centrifuged at 350 g for 15 minutes. Cells were stained with anti-human antibodies for HbF (clone HbF-1 with FITC or APC conjugation; Life Technologies) and B-hemoglobin antibody (clone 37-8 with PerCP-Cy5 or PE conjugation; Santa Cruz) for 20 minutes in the dark. Cells were washed to remove unbound antibody prior to FACS analysis. 0.2 μg HbF and 2 μg of HbA CB-hemoglobin) antibodies were used per 5 million cells. Control cells exposed to a nontargeting sgRNA sample and BCL11A exon 2 were used as negative and positive controls respectively to establish flow cytometry conditions. Populations of cells with the top and bottom 10% of expression of HbF were sorted by FACS.
After sorting the HbF-high and HbF-low pools, library preparation and deep sequencing was performed as previously described (37). Briefly, genomic DNA was extracted using the Qiagen Blood and Tissue kit. […]

| Substance | Enrichment Score | Dropout Score |
| --- | --- | --- |
| BCL_01989_H_exon2 (guide CTGCTATGTGTTCCTGTTTGNGGRC; listed as DNA, chemistry not given here) | 0.6201 | 0.0332 |
| BCL_01991_H_exon2 (guide CGTCATCCTCTGGCGTGACCNGGRC; listed as DNA, chemistry not given here) | 0.8523 | −0.7166 |
| BCL_00091_H_D55 (guide CCCACTTCCCTTCCTAGAATNGG; listed as DNA, chemistry not given here) | 1.168 | −0.5042 |
| BCL_00031_H_D55 (guide CTGGCAGACCCTCAAGAGCANGG; listed as DNA, chemistry not given here) | 0.3216 | −1.354 |
| BCL_01834_H_D62 (guide TATCAGAAGGGAACTGTTTGNGGRC; listed as DNA, chemistry not given here) | 0.4029 | 0.02327 |
| BCL_00241_H_D62 (guide CTCAGCTACTCGGGAGGCTGNGG; listed as DNA, chemistry not given here) | 0.6113 | −9.052 |
| BCL_00096_H_D55 (guide AGCAAATAGGCTTAGTGTGCNGG; listed as DNA, chemistry not given here) | 0.3521 | −0.2396 |
| BCL_01634_H_D58 (guide TGGGTGGGGTAGAAGAGGACNGGRC; listed as DNA, chemistry not given here) | 0.4147 | −1.078 |
| BCL_00238_H_D62 (guide TGCCTGTAATCTCAGCTACTNGG; listed as DNA, chemistry not given here) | 0.6113 | −8.923 |
| BCL_01829_H_D62 (guide TGTGGGGTGGCTGTTTAAAGNGGRC; listed as DNA, chemistry not given here) | 0.496 | −0.1469 |
| BCL_01483_H_D55 (guide GTCATCCTCGGCCAATGAAGNGGRC; listed as DNA, chemistry not given here) | 0.4318 | −0.4056 |
| BCL_00008_H_D55 (guide TGAAACCAAGCTTCCTCTGCNGG; listed as DNA, chemistry not given here) | 0.2741 | −0.2303 |
| BCL_00130_H_D58 (guide GGAGTATGGGGAGAGAAGAGNGG; listed as DNA, chemistry not given here) | 0.3752 | −2.212 |
| BCL_00085_H_D55 (guide GGGTGTGCCCTGAGAAGGTGNGG; listed as DNA, chemistry not given here) | 0.5011 | −0.6263 |
| BCL_00086_H_D55 (guide CTCCAAGCATTGCATCATCCNGG; listed as DNA, chemistry not given here) | 0.6343 | −0.2703 |
| BCL_01454_H_D55 (guide GGGTCGCGGTAGGGAGTTGTNGGRC; listed as DNA, chemistry not given here) | 0.3579 | −0.5577 |
| BCL_00263_H_exon2 (guide GAAAAAAGCATCCAATCCCGNGG; listed as DNA, chemistry not given here) | 0.6213 | −2.115 |
| BCL_00131_H_D58 (guide TGGGGAGAGAAGAGTGGAAANGG; listed as DNA, chemistry not given here) | 0.2698 | −0.3654 |
| BCL_00253_H_exon2 (guide CCCGTTGGGAGCTCCAGAAGNGG; listed as DNA, chemistry not given here) | 1.205 | −1.968 |

| Substance | Enrichment Score | Dropout Score |
| --- | --- | --- |
| BCL_01641_H_D55 (guide CGGTGGCCGTTTGCCCAGGGNGGRC; listed as DNA, chemistry not given here) | 0.282 | −0.4633 |
| BCL_00092_H_D55 (guide TTCCCTTCCTAGAATTGGCCNGG; listed as DNA, chemistry not given here) | 0.4035 | −0.4369 |
| BCL_00245_H_D62 (guide GGAGATCGCTTGAACCTGGGNGG; listed as DNA, chemistry not given here) | 0.4762 | −5.067 |
| BCL_01999_H_exon2 (guide ATCTCGATTGGTGAAGGGGANGGRC; listed as DNA, chemistry not given here) | 0.6204 | −0.7601 |
| BCL_00264_H_exon2 (guide AAAAGCATCCAATCCCGTGGNGG; listed as DNA, chemistry not given here) | 0.5578 | −1.376 |
| BCL_01669_H_D58 (guide CCAGCTGAAGAAAGAACATTNGGRC; listed as DNA, chemistry not given here) | 0.3196 | −0.00075 |
| BCL_00258_H_exon2 (guide GCCAGATGAACTTCCCATTGNGG; listed as DNA, chemistry not given here) | 1.593 | −1.899 |
| BCL_00227_H_D62 (guide ATCCCAGCACTTTGGGAGGCNGG; listed as DNA, chemistry not given here) | 0.79 | −8.099 |
| BCL_02014_H_exon2 (guide TCTGTAAGAATGGCTTCAAGNGGRC; listed as DNA, chemistry not given here) | 0.9901 | −0.7711 |
| BCL_01620_H_D58 (guide TTTATCACAGGCTCCAGGAANGGRC; listed as DNA, chemistry not given here) | 1.38 | −0.9481 |
| BCL_00240_H_D62 (guide TGTAATCTCAGCTACTCGGGNGG; listed as DNA, chemistry not given here) | 0.79 | −8.691 |
| BCL_02003_H_exon2 (guide AAATAAGAATGTCCCCCAATNGGRC; listed as DNA, chemistry not given here) | 1.085 | −0.09695 |
| BCL_01637_H_D58 (guide CCATCGGTGGCCGTTTGCCCNGGRC; listed as DNA, chemistry not given here) | 0.669 | −0.5016 |
| BCL_01629_H_D58 (guide TCTGATTAGGGTGGGGGCGTNGGRC; listed as DNA, chemistry not given here) | 1.104 | 0.1807 |
| BCL_01449_H_D55 (guide GTGCTTGGTCGGCACTGATANGGRC; listed as DNA, chemistry not given here) | 1.134 | −0.6101 |
| BCL_00254_H_exon2 (guide GATCATGACCTCCTCACCTGNGG; listed as DNA, chemistry not given here) | 2.198 | −2.256 |
| BCL_01625_H_D58 (guide GTTTGGCCTCTGATTAGGGTNGGRC; listed as DNA, chemistry not given here) | 0.3718 | −0.9451 |
| BCL_00108_H_D55 (guide TCTGAGGAGCTAGAGACTTGNGG; listed as DNA, chemistry not given here) | 0.3065 | −0.6499 |
